Measurements taken from patent US9549967B2, “Regulation of sodium channels by PLUNC proteins” (The University of North Carolina at Chapel Hill, priority 2009, dated 2017).

How the values were obtained:
ENaC = target: T1, ENaC (Homo sapiens, UniProt P37088+P51168+P51170); test: Transepithelial voltage under thin film conditions in human bronchial epithelial cultures (microelectrode); type: cell-based; conditions: rSPLUNC1 vs aprotinin addition; effects not additive
T1 construct: endogenous in cells; host or cells: primary human bronchial epithelial cultures
T1 sequence (P37088 1-669): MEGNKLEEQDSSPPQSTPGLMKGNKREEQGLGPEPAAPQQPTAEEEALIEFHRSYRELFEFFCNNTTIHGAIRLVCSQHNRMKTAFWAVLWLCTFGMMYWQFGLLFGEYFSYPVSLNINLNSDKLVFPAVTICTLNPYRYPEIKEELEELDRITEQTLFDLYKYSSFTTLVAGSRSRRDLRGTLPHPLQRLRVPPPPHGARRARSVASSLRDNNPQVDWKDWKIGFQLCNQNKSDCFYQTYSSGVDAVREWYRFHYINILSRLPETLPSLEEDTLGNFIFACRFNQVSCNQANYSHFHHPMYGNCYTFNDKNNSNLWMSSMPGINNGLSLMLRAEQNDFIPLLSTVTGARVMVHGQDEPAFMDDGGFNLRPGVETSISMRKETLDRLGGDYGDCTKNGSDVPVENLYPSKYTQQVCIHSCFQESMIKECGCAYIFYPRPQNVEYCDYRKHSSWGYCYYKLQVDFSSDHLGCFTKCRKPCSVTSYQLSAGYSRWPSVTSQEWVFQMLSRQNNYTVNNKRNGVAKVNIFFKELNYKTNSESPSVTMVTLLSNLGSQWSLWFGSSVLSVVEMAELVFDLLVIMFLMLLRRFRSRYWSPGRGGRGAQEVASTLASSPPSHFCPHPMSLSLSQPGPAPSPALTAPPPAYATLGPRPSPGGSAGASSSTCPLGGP
T1 sequence (P51168 1-640): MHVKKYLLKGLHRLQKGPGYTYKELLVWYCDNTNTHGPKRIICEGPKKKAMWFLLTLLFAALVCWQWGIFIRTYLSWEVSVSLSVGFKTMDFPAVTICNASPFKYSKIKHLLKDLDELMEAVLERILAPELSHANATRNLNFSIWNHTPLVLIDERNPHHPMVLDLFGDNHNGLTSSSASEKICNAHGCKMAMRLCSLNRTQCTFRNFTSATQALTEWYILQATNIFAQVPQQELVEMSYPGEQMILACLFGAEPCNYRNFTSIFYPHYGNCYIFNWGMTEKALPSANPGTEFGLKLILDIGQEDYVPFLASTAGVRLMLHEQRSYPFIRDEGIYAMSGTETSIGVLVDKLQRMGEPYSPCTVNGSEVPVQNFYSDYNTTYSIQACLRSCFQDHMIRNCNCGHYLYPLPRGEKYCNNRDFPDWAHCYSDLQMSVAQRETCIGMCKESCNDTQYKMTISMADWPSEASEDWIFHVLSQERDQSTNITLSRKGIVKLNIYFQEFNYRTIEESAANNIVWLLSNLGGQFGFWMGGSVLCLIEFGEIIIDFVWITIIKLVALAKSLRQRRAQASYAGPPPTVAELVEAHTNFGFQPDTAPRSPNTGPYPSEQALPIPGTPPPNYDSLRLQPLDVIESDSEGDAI
T1 sequence (P51170 1-649): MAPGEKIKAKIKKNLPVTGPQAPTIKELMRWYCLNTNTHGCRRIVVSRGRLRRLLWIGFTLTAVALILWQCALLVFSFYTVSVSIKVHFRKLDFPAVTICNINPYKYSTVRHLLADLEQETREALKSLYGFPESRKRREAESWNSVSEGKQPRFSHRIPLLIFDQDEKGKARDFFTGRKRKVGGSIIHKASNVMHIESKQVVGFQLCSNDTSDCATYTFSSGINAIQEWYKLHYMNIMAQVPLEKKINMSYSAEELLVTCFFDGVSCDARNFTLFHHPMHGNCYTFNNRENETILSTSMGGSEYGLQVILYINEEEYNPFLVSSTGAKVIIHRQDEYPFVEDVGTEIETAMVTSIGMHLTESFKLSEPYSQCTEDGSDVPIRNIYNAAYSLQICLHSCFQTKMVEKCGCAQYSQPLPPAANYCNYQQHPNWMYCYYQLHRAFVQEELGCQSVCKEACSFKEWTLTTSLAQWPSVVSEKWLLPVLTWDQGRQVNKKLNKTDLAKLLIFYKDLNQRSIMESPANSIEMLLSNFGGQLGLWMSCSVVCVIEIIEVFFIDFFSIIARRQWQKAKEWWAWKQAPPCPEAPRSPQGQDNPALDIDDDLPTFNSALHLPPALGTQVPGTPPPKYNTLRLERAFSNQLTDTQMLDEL
Source text: Tissue procurement and cell culture: Cells were harvested by enzymatic digestion from human bronchial tissue as previously described under a protocol approved by the UNC School of Medicine IRB (Tarran et al., J. Gen. Physiol. 127:591 (2006)). Human excess donor lungs and excised recipient lungs were obtained at the time of lung transplantation from portions of main stem or […] bronchi and cells were harvested by enzymatic digestion. All preparations were maintained at an air-liquid interface in a modified bronchial epithelial medium and used 2-5 weeks after seeding on 12 mm T-Clear inserts (Corning Costar) coated with human placental type VI collagen (Sigma). Phosphate buffered saline (PBS) was used for washing human bronchial epithelial culture mucosal surfaces.
Microelectrode studies. A single-barreled potential difference-sensing electrode was placed in the airway surface liquid by micromanipulator and used in conjunction with a macroelectrode in the serosal solution to measure transepithelial voltage using a voltmeter (World Precision Instruments). […] Transepithelial resistance was routinely measured using the EVOM system (WPI) as previously described (Tarran et al., J. Gen. Physiol. 127:591 (2006)).

trypsin = test: Cell-free fluorogenic assay of BGAR-MCA cleavage by trypsin; type: biochemical; conditions: 2 U/ml aprotinin
Protocol: (§1) For cell-free assays, reactions were carried out in 50 μl Ringer in a 96 well plate format with 100 μM BGAR-MCA. To measure endogenous protease activity in human bronchial epithelial cultures, 30 μl Ringer with 100 μM BGAR-MCA were placed directly onto the mucosal surfaces of human bronchial epithelial cultures grown on 12 mm T-clear inserts and the cultures were assayed in 12 well plates.

serine proteases = test: Endogenous protease activity (BGAR-MCA cleavage) on mucosal surfaces of human bronchial epithelial cultures; type: cell-based
Protocol: as §1

αENaC = target: T2, αENaC (Homo sapiens, UniProt P37088); test: Texas red-SPLUNC1 binding assay on JME cells expressing yfp-αENaC; conditions: polarized JME cells
T2 construct: expressed in transfected cells; host or cells: JME nasal epithelial cells (passaged, no endogenous ENaC), lentiviral vector pQCXIN
T2 sequence (P37088 1-669): T1 sequence (P37088 1-669)
Protocol: JME cells were incubated with varying concentrations of Texas red-labeled SPLUNC1 for 30 min followed by a 5× wash with PBS. After this time images were acquired with a Nikon Ti-S inverted microscope and were quantified to obtain specific and non-specific binding using Image J. Data were then fitted with a Hill Plot to obtain the Kd.
JME nasal epithelial cells express functional ENaCs (Tong et al., Am. J. Physiol. Lung Cell. Mol. Physiol. 287:L928 (2004)). However, this attribute is lost after several passages. Thus, passaged JME cells that no longer expressed ENaC were stably infected with a lentivirus containing yfp-αENaC or an empty vector as a control and the presence or absence of αENaC was confirmed using an antibody that was constructed “in-house” that was directed against αENaC (FIG. 8).
Recombinant SPLUNC1 was labeled with Texas red according to the manufacturer's instructions (Pierce) and was freshly labeled on the day of each binding experiment. […] After this time yfp (514 nm excitation) and Texas red fluorescence (590 nm excitation) were imaged under a 60× water objective on a Nikon Ti-S inverted microscope equipped with an Orca CCD camera (Hamamatsu) switchable filter wheels (Ludl). Background fluorescence was subtracted from all images and the mean thresholded intensity was quantified to obtain specific and non-specific binding using Image J.

aprotinin [reference compound]
rate of inhibition of the transepithelial voltage (ENaC): identical rates | inhibition of trypsin activity (trypsin): ~100% | spontaneous BGAR-MCA cleavage on mucosal surfaces (serine proteases): inhibited

B1: Texas red-rSPLUNC1: recombinant SPLUNC1 labeled with Texas red (conjugate)
chain: QFGGLPVPLDQTLPLNVNPALPLSPTGLAGSLTNALSNGLLSGGLLGILENLPLLDILKPGGGTSGGLLGGLLGKVTSVIPGLNNIIDIKVTDPQLLELGLVQSPDGHRLYVTIPLGIKLQVNTPLVGASLLRLAVKLDITAEILAVRDKQERIHLVLGDCTHSPGSLQISLLDGLGPLPIQGLLDSLTGILNKVLPELVQGNVCPLVNEVLRGLDITLVHDIVNMLIHGLQFVIKV
modifications: left off: small tags and cut ends
Kd (αENaC; 30 min incubation, Hill fit): 0.055 µg/mL | specific (yfp-αENaC) binding vs non-specific (empty vector) binding (αENaC; binding isotherm): significantly greater and saturable
